Source: PubChem BioAssay (NCI)
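These data come from cells grown in 96-well plates and exposed to compound for 48 hours at five concentrations. GI50 marks 50% less growth. The concentration for full growth arrest is given as TGI.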

Key:
Experiment in all cases: NCI-60 cell line screen, 48 h
OVCAR-8 ovarian = test system: OVCAR-8 ovarian
NCI/ADR-RES ovarian = test system: NCI/ADR-RES ovarian
DU-145 prostate = test system: DU-145 prostate
U251 CNS = test system: U251 CNS
A549 NSCLC = test system: A549 NSCLC
KM12 colon = test system: KM12 colon
HOP-92 NSCLC = test system: HOP-92 NSCLC
A498 renal = test system: A498 renal
RXF 393 renal = test system: RXF 393 renal
SNB-19 CNS = test system: SNB-19 CNS

SMILES | TGI (OVCAR-8 ovarian) | TGI (NCI/ADR-RES ovarian) | TGI (DU-145 prostate) | TGI (U251 CNS) | TGI (A549 NSCLC) | TGI (KM12 colon) | TGI (HOP-92 NSCLC) | TGI (A498 renal) | TGI (RXF 393 renal) | TGI (SNB-19 CNS) | GI50 (OVCAR-8 ovarian) | GI50 (NCI/ADR-RES ovarian) | GI50 (DU-145 prostate) | GI50 (U251 CNS) | GI50 (A549 NSCLC) | GI50 (KM12 colon) | GI50 (HOP-92 NSCLC) | GI50 (A498 renal) | GI50 (RXF 393 renal) | GI50 (SNB-19 CNS)
Nc1cc(C(=O)O)[nH]c(=O)n1 | > 100 µM | > 100 µM | > 100 µM | > 100 µM | > 100 µM | > 100 µM | > 100 µM | > 100 µM | > 100 µM | > 100 µM | – | – | – | – | – | – | – | – | – | –
Cc1cc2cc3cc(C)c(N(C)C)cc3[n+](C)c2cc1N(C)C | 14.7 µM | > 100 µM | 31.9 µM | 21.2 µM | > 100 µM | 11.3 µM | 11.1 µM | 25.5 µM | 23.4 µM | > 100 µM | 2.72 µM | 22.4 µM | 4.87 µM | 2.05 µM | 3.1 µM | 2.72 µM | 2.3 µM | 3.18 µM | 6.09 µM | 4.22 µM
CC/C(=C(/c1ccc(OCCN(C)C)cc1)c1ccc(OC(=O)CCC(=O)c2c(C)[nH]c(/C=C3\N=C(c4ccc[nH]4)C=C3OC)c2C)cc1)c1ccccc1 | 10.3 µM | 15.9 µM | 16.8 µM | 6.23 µM | 10.6 µM | 10 µM | 4.13 µM | 16.8 µM | 12.6 µM | 21.8 µM | 2.73 µM | 3.62 µM | 3.27 µM | 1.46 µM | 2.63 µM | 1.21 µM | 0.749 µM | 2.54 µM | 2.34 µM | 5.49 µM
Oc1ccc(CN2CCC(N3CCOCC3)CC2)c2cccnc12 | > 100 µM | > 100 µM | > 100 µM | > 100 µM | > 100 µM | > 100 µM | > 100 µM | > 100 µM | 95.5 µM | > 100 µM | 34.3 µM | 29.2 µM | 31.3 µM | 24.4 µM | > 100 µM | 46.9 µM | 65.9 µM | > 100 µM | 23 µM | 43.9 µM
CN(CCCCCl)P(=O)(OCc1ccc([N+](=O)[O-])o1)OCC1OC(n2ccc(N)nc2=O)C(F)(F)C1O (stereo not drawn) | – | > 100 µM | > 28.4 µM | > 86.5 µM | > 59.5 µM | > 73.9 µM | 0.83 µM | > 74.5 µM | > 100 µM | – | 0.108 µM | 0.419 µM | 0.188 µM | 0.77 µM | 0.73 µM | 14.8 µM | 0.155 µM | 5.8 µM | > 100 µM | 0.257 µM
COc1cc2c3c(n(CCCN(CCN)CCCn4c5c(c6cc(OC)c(OC)cc6c4=O)C(=O)c4cc6c(cc4-5)OCO6)c(=O)c2cc1OC)-c1cc2c(cc1C3=O)OCO2 | > 42.2 µM | > 76.1 µM | > 100 µM | 5.99 µM | > 100 µM | > 37 µM | 15 µM | 25.7 µM | 12.7 µM | > 100 µM | 1.53 µM | 2.22 µM | 0.663 µM | 0.354 µM | 2.72 µM | 4.04 µM | 1.29 µM | 6.71 µM | 3.39 µM | 0.741 µM
CC(C)Nc1ccc(Nc2ccccc2)cc1 | 26.5 µM | 65.3 µM | > 100 µM | 32 µM | > 100 µM | > 100 µM | 30 µM | > 100 µM | 24.6 µM | > 100 µM | 11.6 µM | 9.8 µM | 26.2 µM | 12.8 µM | 26.2 µM | 22.4 µM | 12 µM | 9.69 µM | 8.81 µM | 25.5 µM
CC(C)[C@H]1CC[C@H]2[C@@H](CC[C@H]3[C@](C)(CN)CCC[C@]23C)C1 | 5.62 µM | 3.93 µM | 3.58 µM | 3.08 µM | 4.23 µM | 3.18 µM | 8.12 µM | 27 µM | 3.84 µM | 12.9 µM | 2.61 µM | 2.08 µM | 1.95 µM | 1.67 µM | 2.18 µM | 1.79 µM | 1.22 µM | 13.2 µM | 2 µM | 3.19 µM
N#Cc1ncc(-c2ccc(C(F)(F)F)cc2)c(NCc2cc(C(F)(F)F)cc(C(F)(F)F)c2)n1 | > 100 µM | 65.8 µM | > 100 µM | 53.5 µM | 21.1 µM | 10.1 µM | 5.74 µM | 7.71 µM | 20.1 µM | 63.3 µM | 3.69 µM | 3.23 µM | 5.19 µM | 3.66 µM | 3.11 µM | 3.17 µM | 2.14 µM | 2.08 µM | 3.37 µM | 4.84 µM
